Publication PMC4411102 (PLoS ONE, 2015)

How the values were obtained:
HIV-1 IIIB and ADA5 = assay: Time-of-addition assay in TZM-bl cells; settings: 71.40 μM
Experimental: Luciferase activity was measured at 48 hrs post treatment using Luminometer (ELx-800, Bio-Tek Instruments, USA). VRC01 (0.1 μM) antibody was used as a positive control.

HIV-1 IIIB [1] = assay: Anti-HIV activity in biological fluids, HIV-1 IIIB, luciferase; format: cell-based; settings: TZM-bl luciferase
HIV-1 IIIB and HIV-1 BaL = assay: Stability in seminal plasma and vaginal fluid (residual anti-HIV activity); format: in vitro ADME; settings: 35.7 μM, up to 72 hrs
[2] = system: PBMCs, VK2/E6E7, TZM-bl, and CEM-GFP cells; assay: MTT cytotoxicity assay; format: cell-based, human
Experimental: Briefly, PBMCs, VK2/E6E7, TZM-bl, and CEM-GFP cells (5x10^4 for 24 hr assay and 2x10^4 cells for 120 hr assay) were seeded in a 96-well microtiter plate 24 hrs prior to the treatment with peptides. Cells were treated with different concentrations of peptides (4.4–1142.4μM). MTT (10 μl of 1mg/ml) was added to each well, followed by addition of 100 μl of DMSO (Sigma-Aldrich) after 3 hrs. The absorbance was measured at 540nm using ELISA reader (ELX-800, BioTek Instruments Ltd, USA.). Untreated cells were used as medium control and 0.1% Triton X-100 treated cells served as a positive control.

gp120 of HIV-1 BaL = assay: Binding ELISA, gp120 of HIV-1 BaL
Experimental: (§1) After blocking with 3% bovine serum albumin (BSA) in PBS for 30 min, 100 μl of gp120 (100ng/well) in PBS-0.05% BSA was added to each well and incubated for 2 hrs at 37°C. After three washings with PBS-Tween-20 (PBS-T), cells were incubated with anti-gp120 antibody at 1:200 dilution and then with horse radish peroxidase-(HRP) conjugated secondary goat anti-human antibody (1:10000 dilution) for 1 hr at 37°C. This was followed by incubation with O-phenylenediamine for 20 min. The absorbance was measured at 492 nm on a microplate ELISA reader (ELx-800, Bio-Tek Instruments, USA). Background values obtained in the wells without HbAHP-25 were subtracted from the absorbance values from wells having all other reagents.

[3] = Circular dichroism spectroscopy; format: physicochemical; settings: 37°C
Experimental: CD spectra was performed on a JASCO CD Spectrometer (J-815) at 37 °C using a 5.0-nm bandwidth, 0.1-cm path length, 5-s response time, and a 10-nm/min scanning speed.

gp120 of HIV-1 IIIB = assay: Binding ELISA, gp120 of HIV-1 IIIB; settings: ELISA
Experimental: as §1
Supplementary file pone.0124839.s001.tif: S1 Fig Binding of designed peptides to gp120. Peptides that were designed in silico were evaluated for their binding to gp120 of HIV-1 IIIB. Peptides were coated on 96 well microtiter plate for 16 hrs and then incubated with 500ng of gp120 for 2 hrs at 37°C. This was followed by addition of anti-gp120 antibody, and absorbance was read at 492nm. Background absorbance was subtracted from the wells where peptides were not coated. […] (TIF) Click here for additional data file.

[4] = system: HL2/3 cells expressing gp120; assay: Flow cytometry, HL2/3 cells expressing gp120; format: binding; settings: 35.7μM HbAHP-25, 1 hr at RT
Experimental: (§2) Cells were washed with same buffer twice and binding was evaluated using flow cytometer (BD Accuri C6, USA). The data was acquired and analyzed on BD Accuri software.

HIV-1 NL4-3 (wt) = format: cell-based
HIV-1 NL4-3 = assay: GFP expression in CEM-GFP cells; settings: HbAHP-25 prior to infection, day 5 post infection
Experimental: Supernatants were collected and accumulated p24 levels were determined by sandwich ELISA as per the manufacturer’s protocol (XpressBio, Thurmont, MD, USA). AZT (10nM) was used as positive control for inhibition. For GFP analysis, CEM-GFP cells were observed under fluorescent microscope (Carl Zeiss, Oberkochen, Germany) and photographed using a digital camera (DSC–S75; Sony, Tokyo, Japan). IC50 was defined as the concentration that inhibited 50% of viral activity. The selectivity index (SI) was evaluated as the ratio of CC50 to IC50 (SI = CC50/ IC50).

[5] = system: vaginal/endocervical epithelial cells
TZM-bl cells = assay: Flow cytometry, TZM-bl cells (no gp120); format: binding; settings: 35.7μM HbAHP-25, 1 hr at RT
Experimental: as §2

gp120 = gp120 (Human immunodeficiency virus type 1 group M subtype B, UniProt P04578); assay: Surface plasmon resonance; format: binding, HIV-1
Experimental: Briefly, gp120 (20 μg/ml) was immobilized onto carboxymethylated dextran (CM5) surface based sensor chip by amine coupling method according to the manufacturer’s instructions. […] 10mM NaOH and 0.5% SDS were used to regenerate the sensor chip surface after each experimental cycle. The binding response in resonance units (RU) was recorded as a function of time. Non-specific binding was subtracted from the control flow cells without gp120. Binding kinetics was determined with BIA evaluation 4.1 software (BIAcore) using 1:1 Langmuir binding model.

HIV-1 IIIB [6] = assay: Anti-HIV activity, p24 antigen assay in H9 cells; format: cell-based; design: key to Anti-HIV activity: +: moderate; ++: significant; NA: No activity; settings: for Anti-HIV activity (in words): 0.1 MoI HIV-1 IIIB pre-incubated with peptide, H9 cells, p24 on day 4
Experimental: Supplementary file pone.0124839.s002.tif: S2 Fig Anti-HIV activity of 3 designed peptides. Anti HIV activity of three peptides was determined using H9 cells. H9 cells were infected for 4 hrs with 0.1 MoI of HIV-1 IIIB pre-incubated with various concentrations of peptides. Peptides were added post infection as well. Supernatant was collected on day 4 post infection, and p24 antigen assay was performed. […] (TIF) Click here for additional data file.
Supplementary file pone.0124839.s003.tif: S3 Fig Anti-HIV activity of peptide analogues of peptide 1. After modifying the peptide 1, we performed anti-HIV assay as earlier. HIV-1 IIIB was pre-incubated with peptide analogues for 1 hr and then added to H9 cells for 4 hrs. Levels of p24 levels were determined on day 4 post infection. […] (TIF) Click here for additional data file.

HIV-1 VSV = format: cell-based, HIV-1 pseudotyped with VSV-G
CD4 binding to gp120 = assay: Competitive ELISA, CD4 binding to gp120; design: species or system HIV-1; settings: gp120 pre-incubated with HbAHP-25 30 min, then CD4 1 hr
Experimental: 96 well microtiter plate was coated with soluble gp120 (1μg/well) from HIV-1 BaL and HIV-1 IIIB strains for 16 hrs at 4°C. […] Anti-CD4 monoclonal antibody (1:200) was added to the wells, followed by HRP-labeled goat anti-human secondary antibody (1:10000). Rest of the protocol followed was same as described above.

HeLa cells = assay: Flow cytometry, HeLa cells (no gp120); format: binding; settings: 35.7μM HbAHP-25, 1 hr at RT
Experimental: as §2

[7] = 2.2–71.40 μM coated, gp120 100ng/well

CC(C)C[C@H](NC(=O)[C@H](CC(C)C)NC(=O)[C@H](CCCCN)NC(=O)[C@H](CS)NC(=O)[C@H](CC(N)=O)NC(=O)[C@@H](NC(=O)[C@@H]1CCCN1C(=O)[C@H](CC(=O)O)NC(=O)[C@@H](NC(=O)[C@H](CCCNC(=N)N)NC(=O)[C@H](CC(C)C)NC(=O)[C@H](CCCCN)NC(=O)[C@H](Cc1c[nH]cn1)NC(=O)[C@H](C)N)C(C)C)C(C)C)C(=O)N[C@@H](CO)C(=O)N[C@@H](Cc1c[nH]cn1)C(=O)N[C@@H](CS)C(=O)N[C@@H](CC(C)C)C(=O)N[C@@H](CC(C)C)C(=O)N[C@H](C(=O)N[C@H](C(=O)N[C@@H](CC(C)C)C(=O)N[C@@H](C)C(=O)N[C@@H](CCCNC(=N)N)C(=O)N[C@@H](Cc1c[nH]cn1)C(N)=O)[C@@H](C)O)C(C)C [HbAHP-25]
Effect on lactobacilli (lactobacilli): not inhibitory to lactobacilli | Anti-HIV activity, during infection (HIV-1 IIIB and ADA5; During: peptide and virus added simultaneously): still significant | Anti-HIV activity, post infection (HIV-1 IIIB and ADA5; Post: peptide 6 hrs after infection): significantly lesser than that shown by the first two groups | Luciferase activity, pre-incubation (HIV-1 IIIB and ADA5; Pre: virus pre-incubated with peptide): significantly lesser luciferase activity | Inhibition, all steps (HIV-1 IIIB and ADA5; peptide at all three steps): Maximum inhibition | Change in anti-HIV activity with seminal plasma (HIV-1 IIIB [1]; human seminal plasma): did not observe any significant change | Change in anti-HIV activity with vaginal fluid (HIV-1 IIIB [1]; human vaginal fluid): did not observe any significant change | Loss in anti-HIV activity after pre-incubation with seminal plasma (HIV-1 IIIB and HIV-1 BaL; human seminal plasma): did not observe any significant loss | Loss in anti-HIV activity after pre-incubation with vaginal fluid (HIV-1 IIIB and HIV-1 BaL; human vaginal fluid): did not observe any significant loss | CC50 fold higher than IC50 ([2]; CC50 versus IC50): 5 fold | Cytotoxicity in words ([2]; MTT): not cytotoxic | Dose without adverse effect on viability, relative to IC50 ([2]; dose higher than its IC50): 3 fold | Binding to recombinant gp120 of HIV-1 BaL (gp120 of HIV-1 BaL; [7]): binds to recombinant gp120 of both HIV-1 IIIB and HIV-1 BaL in a dose dependent manner | Concentration with significant binding to gp120 (gp120 of HIV-1 BaL; HIV-1 BaL gp120): above 8.9 μM | α-helical content ([3]; 10 μM, PBS pH 7 / sodium acetate pH 4, from ellipticity at 222 nm): about 50% | Structure at low pH ([3]; pH 4 versus pH 7, 10 μM): no significant change in its structure at low pH | Binding to recombinant gp120 of HIV-1 IIIB (gp120 of HIV-1 IIIB; [7]): binds to recombinant gp120 of both HIV-1 IIIB and HIV-1 BaL in a dose dependent manner | Concentration with significant binding to gp120 (gp120 of HIV-1 IIIB; HIV-1 IIIB gp120): above 8.9 μM | Shift in fluorescent peak in FL-1A channel [4]: 60.10 ± 4.3% | Infectivity of HIV-1 (wt) (HIV-1 NL4-3 (wt)): inhibited | GFP expression (HIV-1 NL4-3): reduced | Disruption of tight junctions [5]: does not cause disruptions of tight junctions | Induction of inflammation [5]: does not induce any inflammation | Shift in fluorescent peak in FL-1A channel (TZM-bl cells): < 3% | Rmax (gp120; SPR): 99.7 RU | Chi2 (gp120; fit to 1:1 Langmuir model): 14.7 | Anti-HIV activity (in words) (HIV-1 IIIB [6]; listed as analogue-1b): showed better anti-HIV activity than analogue-1a and analogue of peptide-3 | Anti-HIV activity (in words) (HIV-1 IIIB [6]; listed as peptide analogue-1b): significantly enhanced | Anti-HIV activity (HIV-1 IIIB [6]; class symbols of Table 1, HIV-1 IIIB in H9 cells, p24 (S2, S3 Fig)): ++ | Entry of HIV-1 VSV (HIV-1 VSV): able to enter the cells within one hour even in the presence of HbAHP-25 | Infectivity of HIV-1 VSV (HIV-1 VSV): not affected | Inhibition of CD4 binding to gp120 (CD4 binding to gp120): significant reduction in the absorbance | Shift in fluorescent peak in FL-1A channel (HeLa cells): < 3%
